# Results from PubChem BioAssay AID1963421 (Molecular Pharmacology Branch, DTP, NCI, 2024).
# Tested on: 519858-162-T-J1-PDC complex spheroid growth, % test/control
# Assay: Anticancer human tumor 519858-162-T-J1-PDC patient-derived colon adenocarcinoma cell line growth inhibition [Asc]
# Settings: for IC50: curve of first compound; for viability, T/C: stronger effect = lower value
# In short: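 Tumor cells were grown as complex spheroids with human endothelial cells (HUVEC) and human mesenchymal stem cells as stroma. Agents were tested alone and in combination, in half-log steps down from the clinical Cmax, or from 10 microM where Cmax was unknown.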
# [1] = second compound 0.0316 µM, first compound 0.0316 µM
# [2] = second compound 0.0316 µM, first compound 0.1 µM
# [3] = second compound 0.0316 µM, first compound 0.316 µM
# [4] = second compound 0.0316 µM, first compound 1 µM
# [5] = second compound 0.1 µM, first compound 0.0316 µM
# [6] = second compound 0.1 µM, first compound 0.1 µM
# [7] = second compound 0.1 µM, first compound 0.316 µM
# [8] = second compound 0.1 µM, first compound 1 µM
# [9] = second compound 0.316 µM, first compound 0.0316 µM
# [10] = second compound 0.316 µM, first compound 0.1 µM
# [11] = second compound 0.316 µM, first compound 0.316 µM
# [12] = second compound 0.316 µM, first compound 1 µM
# [13] = second compound 1 µM, first compound 0.0316 µM
# [14] = second compound 1 µM, first compound 0.1 µM
# [15] = second compound 1 µM, first compound 0.316 µM
# [16] = second compound 1 µM, first compound 1 µM
# [17] = second compound 3.16 µM, first compound 0.0316 µM
# [18] = second compound 3.16 µM, first compound 0.1 µM
# [19] = second compound 3.16 µM, first compound 0.316 µM
# [20] = second compound 3.16 µM, first compound 1 µM
# [21] = second compound 10 µM, first compound 0.0316 µM
# [22] = second compound 10 µM, first compound 0.1 µM
# [23] = second compound 10 µM, first compound 0.316 µM
# [24] = second compound 10 µM, first compound 1 µM
# [25] = second compound 0.0316 µM, first compound 0.00316 µM
# [26] = second compound 0.0316 µM, first compound 0.01 µM
# [27] = second compound 0.1 µM, first compound 0.00316 µM
# [28] = second compound 0.1 µM, first compound 0.01 µM
# [29] = second compound 0.316 µM, first compound 0.00316 µM
# [30] = second compound 0.316 µM, first compound 0.01 µM
# [31] = second compound 1 µM, first compound 0.00316 µM
# [32] = second compound 1 µM, first compound 0.01 µM
# [33] = second compound 3.16 µM, first compound 0.00316 µM
# [34] = second compound 3.16 µM, first compound 0.01 µM
# [35] = second compound 10 µM, first compound 0.00316 µM
# [36] = second compound 10 µM, first compound 0.01 µM
# 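Further: seven day drug exposure begun three days after spheroid seeding.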
# 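Wherever viability, T/C is given: 100% = DMSO vehicle wells and lower values mean less viable spheroid.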
smiles,measurement,setting,value
C=CC(=O)N1CCN(c2nc(=O)n(-c3c(C)ccnc3C(C)C)c3nc(-c4c(O)cccc4F)c(F)cc23)C(C)C1 (stereo unspecified) + Cc1c(S(C)(=O)=O)c(-c2cc(F)cc(N3CCN(c4ccc(NS(=O)(=O)c5ccc(NC(CCN6CCC(C(=O)OCCCP(=O)(O)O)CC6)CSc6ccccc6)c(S(=O)(=O)C(F)(F)F)c5)cc4)CC3)c2)c(-c2ccc(Cl)cc2)n1C(C)C,IC50,second compound 0.0316 µM,> 10000 nM
same,IC50,second compound 0.1 µM,> 10000 nM
same,IC50,second compound 0.316 µM,> 10000 nM
same,IC50,second compound 1 µM,> 10000 nM
same,IC50,second compound 3.16 µM,> 10000 nM
same,IC50,second compound 10 µM,31.6 nM
same,"viability, T/C",[1],93.5%
same,"viability, T/C",[2],97.2%
same,"viability, T/C",[3],83.9%
same,"viability, T/C",[4],79.4%
same,"viability, T/C","second compound 0.0316 µM, first compound 3.16 µM",83.8%
same,"viability, T/C","second compound 0.0316 µM, first compound 10 µM",70.9%
same,"viability, T/C",[5],84.2%
same,"viability, T/C",[6],84.3%
same,"viability, T/C",[7],82.5%
same,"viability, T/C",[8],89.5%
same,"viability, T/C","second compound 0.1 µM, first compound 3.16 µM",87.7%
same,"viability, T/C","second compound 0.1 µM, first compound 10 µM",77%
same,"viability, T/C",[9],89.7%
same,"viability, T/C",[10],86.6%
same,"viability, T/C",[11],76.2%
same,"viability, T/C",[12],75.5%
same,"viability, T/C","second compound 0.316 µM, first compound 3.16 µM",68.7%
same,"viability, T/C","second compound 0.316 µM, first compound 10 µM",66.1%
same,"viability, T/C",[13],62.6%
same,"viability, T/C",[14],58.5%
same,"viability, T/C",[15],72.4%
same,"viability, T/C",[16],69.5%
same,"viability, T/C","second compound 1 µM, first compound 3.16 µM",87.9%
same,"viability, T/C","second compound 1 µM, first compound 10 µM",73.6%
same,"viability, T/C",[17],72.8%
same,"viability, T/C",[18],77.9%
same,"viability, T/C",[19],64%
same,"viability, T/C",[20],60.6%
same,"viability, T/C","second compound 3.16 µM, first compound 3.16 µM",56.3%
same,"viability, T/C","second compound 3.16 µM, first compound 10 µM",68.9%
same,"viability, T/C",[21],52.9%
same,"viability, T/C",[22],53.7%
same,"viability, T/C",[23],46.9%
same,"viability, T/C",[24],55.3%
same,"viability, T/C","second compound 10 µM, first compound 3.16 µM",83.2%
same,"viability, T/C","second compound 10 µM, first compound 10 µM",63.7%
COc1c(OCCCN2CCOCC2)ccc2c3n(c(=NC(=O)c4cnc(N)nc4)nc12)CCN3 + Cc1c(S(C)(=O)=O)c(-c2cc(F)cc(N3CCN(c4ccc(NS(=O)(=O)c5ccc(NC(CCN6CCC(C(=O)OCCCP(=O)(O)O)CC6)CSc6ccccc6)c(S(=O)(=O)C(F)(F)F)c5)cc4)CC3)c2)c(-c2ccc(Cl)cc2)n1C(C)C,IC50,second compound 0.0316 µM,> 1000 nM
same,IC50,second compound 0.1 µM,578 nM
same,IC50,second compound 0.316 µM,> 1000 nM
same,IC50,second compound 1 µM,238 nM
same,IC50,second compound 3.16 µM,> 1000 nM
same,IC50,second compound 10 µM,> 1000 nM
same,"viability, T/C",[25],41.6%
same,"viability, T/C",[26],97.5%
same,"viability, T/C",[1],74.9%
same,"viability, T/C",[2],95.5%
same,"viability, T/C",[3],54.4%
same,"viability, T/C",[4],52.7%
same,"viability, T/C",[27],68.5%
same,"viability, T/C",[28],94.5%
same,"viability, T/C",[5],64.7%
same,"viability, T/C",[6],100%
same,"viability, T/C",[7],53.2%
same,"viability, T/C",[8],47.1%
same,"viability, T/C",[29],65.2%
same,"viability, T/C",[30],103%
same,"viability, T/C",[9],69.4%
same,"viability, T/C",[10],72.7%
same,"viability, T/C",[11],52.2%
same,"viability, T/C",[12],53.5%
same,"viability, T/C",[31],108%
same,"viability, T/C",[32],97.1%
same,"viability, T/C",[13],74.7%
same,"viability, T/C",[14],59.8%
same,"viability, T/C",[15],46.8%
same,"viability, T/C",[16],42.2%
same,"viability, T/C",[33],84.1%
same,"viability, T/C",[34],60.8%
same,"viability, T/C",[17],79.2%
same,"viability, T/C",[18],70.3%
same,"viability, T/C",[19],53.9%
same,"viability, T/C",[20],55.6%
same,"viability, T/C",[35],78.3%
same,"viability, T/C",[36],72.1%
same,"viability, T/C",[21],71.1%
same,"viability, T/C",[22],45.6%
same,"viability, T/C",[23],58.2%
same,"viability, T/C",[24],46.2%
NC1CCC(NC2CC2c2ccccc2)CC1 (stereo unspecified) + Cc1c(S(C)(=O)=O)c(-c2cc(F)cc(N3CCN(c4ccc(NS(=O)(=O)c5ccc(NC(CCN6CCC(C(=O)OCCCP(=O)(O)O)CC6)CSc6ccccc6)c(S(=O)(=O)C(F)(F)F)c5)cc4)CC3)c2)c(-c2ccc(Cl)cc2)n1C(C)C,IC50,second compound 0.0316 µM,> 100 nM
same,IC50,second compound 0.1 µM,> 100 nM
same,IC50,second compound 0.316 µM,> 100 nM
same,IC50,second compound 1 µM,> 100 nM
same,IC50,second compound 3.16 µM,> 100 nM
same,IC50,second compound 10 µM,> 100 nM
same,"viability, T/C","second compound 0.0316 µM, first compound 0.000316 µM",106%
same,"viability, T/C","second compound 0.0316 µM, first compound 0.001 µM",128%
same,"viability, T/C",[25],116%
same,"viability, T/C",[26],137%
same,"viability, T/C",[1],115%
same,"viability, T/C",[2],70.6%
same,"viability, T/C","second compound 0.1 µM, first compound 0.000316 µM",134%
same,"viability, T/C","second compound 0.1 µM, first compound 0.001 µM",122%
same,"viability, T/C",[27],92.7%
same,"viability, T/C",[28],94.8%
same,"viability, T/C",[5],79.9%
same,"viability, T/C",[6],98.3%
same,"viability, T/C","second compound 0.316 µM, first compound 0.000316 µM",65.3%
same,"viability, T/C","second compound 0.316 µM, first compound 0.001 µM",109%
same,"viability, T/C",[29],142%
same,"viability, T/C",[30],94%
same,"viability, T/C",[9],85.5%
same,"viability, T/C",[10],107%
same,"viability, T/C","second compound 1 µM, first compound 0.000316 µM",96.3%
same,"viability, T/C","second compound 1 µM, first compound 0.001 µM",74.7%
same,"viability, T/C",[31],99.4%
same,"viability, T/C",[32],60.3%
same,"viability, T/C",[13],134%
same,"viability, T/C",[14],77.9%
same,"viability, T/C","second compound 3.16 µM, first compound 0.000316 µM",72.6%
same,"viability, T/C","second compound 3.16 µM, first compound 0.001 µM",113%
same,"viability, T/C",[33],97.3%
same,"viability, T/C",[34],83.6%
same,"viability, T/C",[17],115%
same,"viability, T/C",[18],116%
same,"viability, T/C","second compound 10 µM, first compound 0.000316 µM",69.7%
same,"viability, T/C","second compound 10 µM, first compound 0.001 µM",79%
same,"viability, T/C",[35],60.6%
same,"viability, T/C",[36],77.1%
same,"viability, T/C",[21],55.4%
same,"viability, T/C",[22],69.9%
